Test results published in the supplement of paper PMC10307832.

Columns and labels:
Assay in all cases: relative viability (nuclei count vs DMSO), 5 days (fraction); higher = more cells survive
BGJ398 + Linsitinib = compound: CCN1CCN(c2ccc(Nc3cc(N(C)C(=O)Nc4c(Cl)c(OC)cc(OC)c4Cl)ncn3)cc2)CC1 [BGJ398] + C[C@]1(O)C[C@@H](c2nc(-c3ccc4ccc(-c5ccccc5)nc4c3)c3c(N)nccn32)C1 [Linsitinib] (partner 1 µM)
Procedure, shortened: (§1)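 Lung cancer cell lines in 1536-well plates got either a single drug or a fixed anchor-drug dose together with five library-drug doses (not always all listed) in √10 steps, by pin tool, on the day after seeding. Nuclei were counted after 5 days, and relative viability is the treated-to-vehicle ratio of nuclei counts. Values are medians of duplicate plates.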

[1] = compound: C1=CC2=NC=CN=C2C=C1/C=C/3\C(=O)NC(=O)S3 + Nc1ncn([C@H]2C[C@H](O)[C@@H](CO)O2)c(=O)n1 [Decitabine] (partner 2 µM)
Procedure, shortened: as §1

[2] = compound: C1=CC2=NC=CN=C2C=C1/C=C/3\C(=O)NC(=O)S3 + CCNC(=O)c1noc(-c2cc(C(C)C)c(O)cc2O)c1-c1ccc(CN2CCOCC2)cc1 [Luminespib] (partner 0.01 µM)
Procedure, shortened: as §1

[3] = compound: C1=CC2=NC=CN=C2C=C1/C=C/3\C(=O)NC(=O)S3 + N=C(N)NC(=N)NCCc1ccccc1 [Phenformin] (partner 250 µM)
Procedure, shortened: as §1

| Cell Line | relative viability (BGJ398 + Linsitinib; first compound 0.01 µM) | relative viability (BGJ398 + Linsitinib; first compound 0.1 µM) | relative viability (BGJ398 + Linsitinib; first compound 0.3162 µM) | relative viability (BGJ398 + Linsitinib; first compound 1 µM) | relative viability ([1]; first compound 0.02 µM) | relative viability ([1]; first compound 0.06325 µM) | relative viability ([1]; first compound 0.2 µM) | relative viability ([1]; first compound 0.6325 µM) | relative viability ([1]; first compound 2 µM) | relative viability ([2]; first compound 0.02 µM) | relative viability ([2]; first compound 0.06325 µM) | relative viability ([2]; first compound 0.2 µM) | relative viability ([2]; first compound 0.6325 µM) | relative viability ([2]; first compound 2 µM) | relative viability ([3]; first compound 0.02 µM) | relative viability ([3]; first compound 0.06325 µM) | relative viability ([3]; first compound 0.2 µM) | relative viability ([3]; first compound 0.6325 µM) | relative viability ([3]; first compound 2 µM) | relative viability (BGJ398 + Linsitinib; first compound 0.03162 µM) |
| --- | --- | --- | --- | --- | --- | --- | --- | --- | --- | --- | --- | --- | --- | --- | --- | --- | --- | --- | --- | --- |
| PC-3 [JPC-3] | 1.01 | 0.959 | 0.864 | 1.01 | 0.785 | 0.911 | 0.822 | 0.801 | 0.868 | 0.704 | 0.767 | 0.732 | 0.687 | 0.813 | 0.478 | 0.542 | 0.467 | 0.487 | 0.487 | – |
| EMC-BAC-2 | 0.815 | 0.842 | 0.825 | 0.872 | 0.933 | 1.01 | 1.05 | 0.922 | 0.808 | 1.13 | 1.22 | 1.17 | 1.09 | 1.02 | 0.499 | 0.532 | 0.55 | 0.518 | 0.396 | 0.785 |
| LK-2 | 0.519 | 0.242 | 0.214 | 0.171 | 0.285 | 0.291 | 0.452 | 0.279 | 0.154 | 0.186 | 0.202 | 0.28 | 0.175 | 0.175 | 0.615 | 0.603 | 0.488 | 0.368 | 0.195 | 0.438 |
| NCI-H2126 | 0.688 | 0.713 | 0.739 | 0.746 | 0.567 | 0.647 | 0.567 | 0.527 | 0.481 | 0.86 | 1.12 | 0.866 | 0.83 | 0.601 | 0.503 | 0.581 | 0.567 | 0.534 | 0.339 | 0.692 |
| HCC-78 | 0.378 | 0.614 | 0.541 | 0.546 | 0.703 | 0.578 | 0.668 | 0.594 | 0.525 | – | – | – | – | – | 0.597 | 0.592 | 0.698 | 0.698 | 0.368 | 0.463 |
| NCI-H1299 | 0.926 | 0.974 | 0.928 | 0.727 | – | – | – | – | – | – | – | – | – | – | – | – | – | – | – | 1.03 |
| NCI-H1650 | – | – | – | – | 0.425 | 0.375 | 0.47 | 0.36 | 0.347 | 0.221 | 0.194 | 0.209 | 0.209 | 0.171 | 0.442 | 0.392 | 0.503 | 0.432 | 0.385 | – |
| ChaGo-K-1 | – | – | – | – | 0.512 | 0.459 | 0.533 | 0.498 | 0.568 | 0.553 | 0.454 | 0.762 | 0.541 | 0.572 | 0.45 | 0.466 | 0.516 | 0.35 | 0.369 | – |
| NCI-H2228 | 0.63 | 0.19 | 0.852 | 0.719 | – | – | – | – | – | 0.157 | 0.132 | 0.152 | 0.156 | 0.137 | 0.281 | 0.329 | 0.445 | 0.361 | 0.213 | 0.438 |
| NCI-H1648 | – | – | – | – | 0.33 | 0.549 | 0.57 | – | 0.539 | – | – | – | – | – | – | – | – | – | – | – |
| NCI-H1563 | 1.17 | 0.947 | 0.792 | 0.724 | – | – | – | – | – | 0.512 | 0.469 | 0.514 | 0.438 | 0.509 | 0.667 | 0.674 | 0.657 | 0.648 | 0.663 | 1.18 |
| A549 | 0.637 | 0.857 | 0.569 | 0.658 | 0.292 | 0.245 | 0.297 | 0.273 | 0.293 | – | – | – | – | – | 0.175 | 0.137 | 0.156 | 0.2 | 0.152 | 0.53 |
| NCI-H522 | – | – | – | – | 0.643 | 0.706 | 0.594 | 0.74 | 0.683 | 1.06 | 1.09 | 1.18 | 1.05 | 0.956 | 0.65 | 0.608 | 0.666 | 0.564 | 0.579 | – |
| NCI-H2170 | – | – | – | – | 0.467 | 0.47 | 0.451 | 0.414 | 0.46 | 0.757 | 0.942 | 0.79 | 0.525 | 0.717 | 0.425 | 0.375 | 0.441 | 0.426 | 0.423 | – |
| NCI-H1623 | – | – | – | – | – | – | – | – | – | 0.379 | 0.431 | 0.474 | 0.47 | 0.335 | 0.553 | 0.675 | 0.622 | 0.608 | 0.494 | – |
| SW 900 | – | – | – | – | 0.418 | 0.356 | 0.515 | – | 0.433 | 0.163 | 0.176 | 0.173 | 0.223 | 0.21 | 0.675 | 0.601 | 0.702 | 0.4 | 0.551 | – |
| IA-LM | 0.532 | 0.501 | 0.496 | 0.481 | – | – | – | – | – | – | – | – | – | – | – | – | – | – | – | 0.499 |
| CAL-12T | 0.774 | 0.882 | 0.773 | 0.756 | – | – | – | – | – | 0.456 | 0.417 | 0.686 | 0.623 | 0.234 | 0.577 | 0.479 | 0.562 | 0.517 | 0.546 | 0.782 |
| EBC-1 | 0.875 | 0.941 | 0.877 | 0.703 | – | – | – | – | – | – | – | – | – | – | – | – | – | – | – | 0.968 |
